Test results as given in patent US10940139B2, “Compounds that interact with the Ras superfamily for the treatment of cancers, inflammatory diseases, rasopathies, and fibrotic disease” (Shy Therapeutics LLC, priority 2017, dated 2021).

How the values were obtained:
[1] = system: MIA-PACA2 pancreatic cancer cell lines; assay: Cell proliferation assay, alternate assay conditions (DAPI fluorescence); assay type: cell-based; settings: Homo sapiens, MIA PaCa-2; for inhibition at 10 µM: * = tested at 10 μM, alternate conditions, MIA-PACA2; for IC50: MIA-PACA2, same assay as the % inhibition (alternate conditions)
Method: Cell lines: Tumor-derived pancreatic cancer cell lines MIA-PACA2 were purchased from ATCC and grown in complete DMEM-High Glucose medium supplemented with penicillin (100 U/mL), streptomycin (100 μg/mL), and 10% heat-inactivated FBS at 37° C. in a humidified incubator with 5% CO2.
Method: Cells are plated at 4000 cells/well density in 96-wells plate. The next day tested small molecules are added to the cells in the final concentration of 10 μM in the presence of 0.3% DMSO and 10% FBS. After small molecules addition, cells are incubated for 4 days at 37° C. in a humidified incubator with 5% CO2. For IC50 value determination, serial dilutions of compounds were added to cells under the same conditions.
Assay: At the end of the incubation period, cell cultures are fixed with a 50-50 mixture (v/v) acetone-methanol for 10 minutes at −20° C., followed by rehydration in PBS for 10 minutes at room temperature. After rehydration, cells are stained with DAPI (1 μg/ml) in PBS for 10 minutes at room temperature, followed by 3 washes with PBS. After staining, DAPI fluorescence is recorded (358 nm excitation/461 nm emission) with the 96-well plate reader Molecular Devices Spectramax M3; degree of small mole-cule-dependent proliferation inhibition is calculated from raw data assuming No Serum cells value as 100%.

[2] = system: MIA-PACA2 pancreatic cancer cell lines; assay: Cell proliferation assay (CellTiter 96 AQueous One); assay type: cell-based; settings: Homo sapiens, MIA PaCa-2; for IC50: MIA-PACA2, compound tested under both conditions, which assay gave the IC50 is not stated; for inhibition at 30 µM: MIA-PACA2

Structure (SMILES): COCc1ccc(-c2csc3c(O)nc(-c4ccccn4)nc23)cc1F [drawing 1722]
- inhibition at 10 µM [1]: 76 to 100%
- IC50 [2]: < 100 nM
- inhibition at 30 µM [2]: 76 to 100%

Structure (SMILES): Oc1nc(-c2ccccn2)nc2c(-c3cccc(C(F)(F)F)c3)csc12 [drawing 1749]
- inhibition at 10 µM [1]: 76 to 100%
- IC50 [2]: 100 to 500 nM
- inhibition at 30 µM [2]: 76 to 100%

Structure (SMILES): COC1CCN(c2nc(-c3nccn3C)nc3sc(-c4ccccc4)c(-c4ccccc4)c23)C1 (centres unmarked) [drawing 1873]
- inhibition at 10 µM [1]: 76 to 100%
- IC50 [1]: 501 to 1000 nM

Structure (SMILES): CCOCCOc1nc(-c2nccn2C)nc2sc(-c3ccccc3)c(-c3ccccc3)c12 [drawing 1874]
- inhibition at 10 µM [1]: 76 to 100%

Structure (SMILES): CCN(CC)CCOc1nc(-c2nccn2C)nc2sc(-c3ccccc3)c(-c3ccccc3)c12 [drawing 1875]
- inhibition at 10 µM [1]: 76 to 100%

Structure (SMILES): COCCNc1nc(-c2ccncn2)nc2sc(-c3ccccc3)c(-c3ccccc3)c12 [drawing 1876]
- inhibition at 10 µM [1]: 51 to 75%

Structure (SMILES): CCOCCNc1nc(-c2nccn2C)nc2sc(-c3ccccc3)c(-c3ccccc3)c12 [drawing 1877]
- inhibition at 10 µM [1]: 76 to 100%
- IC50 [1]: 501 to 1000 nM

Structure (SMILES): Cn1ccnc1-c1nc(NCCOC2CC2)c2c(-c3ccccc3)c(-c3ccccc3)sc2n1 [drawing 1878]
- inhibition at 10 µM [1]: 76 to 100%

Structure (SMILES): COCC(C)Nc1nc(-c2nccn2C)nc2sc(-c3ccccc3)c(-c3ccccc3)c12 (centres unmarked) [drawing 1879]
- inhibition at 10 µM [1]: 76 to 100%
- IC50 [1]: 501 to 1000 nM

Structure (SMILES): CC(CO)Nc1nc(-c2nccn2C)nc2sc(-c3ccccc3)c(-c3ccccc3)c12 (centres unmarked) [drawing 1880]
- inhibition at 10 µM [1]: 76 to 100%

Structure (SMILES): Cn1ccnc1-c1nc(NCCCO)c2c(-c3ccccc3)c(-c3ccccc3)sc2n1 [drawing 1881]
- inhibition at 10 µM [1]: 76 to 100%

Structure (SMILES): COCCNc1nc(-c2nccn2C)nc2sc(-c3ccccc3)c(-c3ccccc3Cl)c12 [drawing 1882]
- inhibition at 10 µM [1]: 76 to 100%
- IC50 [1]: > 1000 nM

Structure (SMILES): COCCNc1nc(-c2nccn2C)nc2sc(-c3ccccc3Cl)c(-c3ccccc3)c12 [drawing 1883]
- inhibition at 10 µM [1]: 76 to 100%
- IC50 [1]: 501 to 1000 nM

Structure (SMILES): COCCNc1nc(-c2nccn2C)nc2sc(-c3ccncc3)c(-c3ccccc3)c12 [drawing 1884]
- inhibition at 10 µM [1]: 76 to 100%

Structure (SMILES): COCCNc1nc(-c2cn(C)cn2)nc2sc(-c3ccccc3)c(-c3ccccc3)c12 [drawing 1885]
- inhibition at 10 µM [1]: 76 to 100%
- IC50 [1]: > 1000 nM

Structure (SMILES): COCCNc1nc(-c2nccn2C)nc2sc(C)c(-c3ccccc3)c12 [drawing 1886]
- inhibition at 10 µM [1]: 76 to 100%
- IC50 [1]: 501 to 1000 nM

Structure (SMILES): COCCNc1nc(-c2cn(C)cn2)nc2sc(C)c(-c3ccccc3)c12 [drawing 1887]
- inhibition at 10 µM [1]: 76 to 100%

Structure (SMILES): COCCNc1nc(-c2nccn2C)nc2sc(-c3cccc(OC)c3)c(-c3ccccc3)c12 [drawing 1888]
- inhibition at 10 µM [1]: 76 to 100%

Structure (SMILES): CC(C)COc1ccc(-c2c(-c3ccccc3)sc3c(O)nc(-c4nccn4C)nc23)cn1 [drawing 1889]
- inhibition at 10 µM [1]: 76 to 100%
- IC50 [1]: 100 to 500 nM

Structure (SMILES): Cn1ccnc1-c1nc(O)c2sc(-c3ccccc3)c(-c3ccccc3)c2n1 [drawing 1890]
- inhibition at 10 µM [1]: 51 to 75%

Structure (SMILES): COCCNc1nc(-c2nccn2C)nc2sc(-c3ccccc3)c(-c3ccc(OC)cc3)c12 [drawing 1891]
- inhibition at 10 µM [1]: 76 to 100%
- IC50 [1]: 501 to 1000 nM

Structure (SMILES): COCCNc1nc(-c2nccn2C)nc2sc(C3CCOCC3)c(-c3ccccc3)c12 [drawing 1892]
- inhibition at 10 µM [1]: 76 to 100%

Structure (SMILES): COCCNc1nc(-c2cccc(N)n2)nc2sc(-c3ccccc3)c(-c3ccccc3)c12 [drawing 1893]
- inhibition at 10 µM [1]: 76 to 100%

Structure (SMILES): Cn1ccnc1-c1nc(O)c2sc(-c3ccccc3)c(-c3cccc(C(F)(F)F)c3)c2n1 [drawing 1894]
- inhibition at 10 µM [1]: 25 to 50%

Structure (SMILES): COc1ccc(-c2c(-c3ccccc3)sc3c(O)nc(-c4nccn4C)nc23)cn1 [drawing 1895]
- inhibition at 10 µM [1]: 76 to 100%
- IC50 [1]: 501 to 1000 nM

Structure (SMILES): Cc1sc2c(O)nc(-c3nccn3C)nc2c1-c1ccccc1 [drawing 1896]
- inhibition at 10 µM [1]: 76 to 100%

Structure (SMILES): Cn1ccnc1-c1nc(O)c2sc(-c3ccccc3)c(-c3ccccc3Cl)c2n1 [drawing 1897]
- inhibition at 10 µM [1]: 76 to 100%
- IC50 [1]: 100 to 500 nM

Structure (SMILES): COCCNc1nc(-c2nccn2C)nc2sc(-c3ccccc3)c(-c3ccncc3)c12 [drawing 1898]
- inhibition at 10 µM [1]: 76 to 100%

Structure (SMILES): COCCNc1nc(-c2nccn2C)nc2sc(-c3ccc(OC)cc3)c(-c3ccccc3)c12 [drawing 1899]
- inhibition at 10 µM [1]: 76 to 100%
- IC50 [1]: 100 to 500 nM

Structure (SMILES): Cn1ccnc1-c1nc(O)c2scc(-c3cccc(C(F)(F)F)c3)c2n1 [drawing 1900]
- inhibition at 10 µM [1]: 76 to 100%
- IC50 [1]: > 1000 nM

Structure (SMILES): Cc1sc2c(O)nc(-c3nccn3C)nc2c1-c1cccc(C(F)(F)F)c1 [drawing 1901]
- inhibition at 10 µM [1]: 76 to 100%
- IC50 [1]: 100 to 500 nM

Structure (SMILES): Cc1sc2c(O)nc(-c3nccn3C)nc2c1-c1ccc(OCC(C)C)nc1 [drawing 1902]
- inhibition at 10 µM [1]: 76 to 100%

Structure (SMILES): COc1ccc(-c2c(C)sc3c(O)nc(-c4nccn4C)nc23)cn1 [drawing 1903]
- inhibition at 10 µM [1]: 25 to 50%

Structure (SMILES): Cc1sc2c(O)nc(-c3nccn3C)nc2c1-c1ccccc1Cl [drawing 1904]
- inhibition at 10 µM [1]: 76 to 100%
- IC50 [1]: 100 to 500 nM

Structure (SMILES): Cn1ccnc1-c1nc(O)c2scc(-c3cccc(OC(F)(F)F)c3)c2n1 [drawing 1905]
- inhibition at 10 µM [1]: 76 to 100%
- IC50 [1]: 100 to 500 nM

Structure (SMILES): Cn1cnc(-c2nc(O)c3scc(-c4cccc(C(F)(F)F)c4)c3n2)c1 [drawing 1906]
- inhibition at 10 µM [1]: 76 to 100%

Structure (SMILES): CC(C)COc1ccc(-c2csc3c(O)nc(-c4cn(C)cn4)nc23)cn1 [drawing 1907]
- inhibition at 10 µM [1]: 76 to 100%

Structure (SMILES): Cn1cnc(-c2nc(O)c3scc(-c4cccc(OC(F)(F)F)c4)c3n2)c1 [drawing 1908]
- inhibition at 10 µM [1]: 76 to 100%

Structure (SMILES): Oc1nc(-c2ccncn2)nc2c(-c3cccc(C(F)(F)F)c3)csc12 [drawing 1909]
- inhibition at 10 µM [1]: 76 to 100%
- IC50 [1]: > 1000 nM

Structure (SMILES): Oc1nc(-c2ncccn2)nc2c(-c3cccc(C(F)(F)F)c3)csc12 [drawing 1910]
- inhibition at 10 µM [1]: 76 to 100%

Structure (SMILES): CC(C)Oc1ccc(-c2csc3c(O)nc(-c4nccn4C)nc23)cc1F [drawing 1911]
- inhibition at 10 µM [1]: 76 to 100%

Structure (SMILES): Cc1sc2c(O)nc(-c3nccn3C)nc2c1-c1ccc(OC(C)C)c(F)c1 [drawing 1912]
- inhibition at 10 µM [1]: 76 to 100%

Structure (SMILES): CC(C)Oc1ccc(-c2c(-c3ccccc3)sc3c(O)nc(-c4nccn4C)nc23)cc1F [drawing 1913]
- inhibition at 10 µM [1]: 76 to 100%

Structure (SMILES): CC(C)COc1ccc(-c2csc3c(O)nc(-c4nccn4C)nc23)cn1 [drawing 1914]
- inhibition at 10 µM [1]: 76 to 100%
- IC50 [1]: 100 to 500 nM

Structure (SMILES): COc1ccc(-c2csc3c(O)nc(-c4nccn4C)nc23)cn1 [drawing 1915]
- inhibition at 10 µM [1]: 76 to 100%

Structure (SMILES): Cn1ccnc1-c1nc(O)c2scc(-c3ccccc3)c2n1 [drawing 1916]
- inhibition at 10 µM [1]: 76 to 100%

Structure (SMILES): Cn1ccnc1-c1nc(O)c2scc(-c3ccccc3Cl)c2n1 [drawing 1917]
- inhibition at 10 µM [1]: 76 to 100%

Structure (SMILES): Cn1ccnc1-c1nc(O)c2scc(-c3ccc(F)cc3F)c2n1 [drawing 1918]
- inhibition at 10 µM [1]: 76 to 100%

Structure (SMILES): Cn1ccnc1-c1nc(O)c2scc(-c3cccc(Cl)c3)c2n1 [drawing 1919]
- inhibition at 10 µM [1]: 76 to 100%

Structure (SMILES): COC(C)(C)c1ccc(-c2csc3c(O)nc(-c4nccn4C)nc23)cc1 [drawing 1920]
- inhibition at 10 µM [1]: 76 to 100%

Structure (SMILES): Cn1ccnc1-c1nc(O)c2scc(-c3ccc(C(C)(C)C)cc3)c2n1 [drawing 1921]
- inhibition at 10 µM [1]: 76 to 100%

Structure (SMILES): COCCNc1nc(-c2ccccn2)nc2sc(-c3ccccc3)c(-c3ccccn3)c12 [drawing 1922]
- inhibition at 10 µM [1]: 76 to 100%

Structure (SMILES): Cc1sc2c(O)nc(-c3nccn3C)nc2c1-c1ccc(F)cc1F [drawing 1923]
- inhibition at 10 µM [1]: 76 to 100%

Structure (SMILES): COCCNc1nc(-c2nccn2C)nc2sc(-c3ccccc3)c(-c3ccccn3)c12 [drawing 1924]
- inhibition at 10 µM [1]: 76 to 100%
- IC50 [1]: 501 to 1000 nM
